The record followed here is US20240368096A1 (Enanta Pharmaceuticals, Inc., priority 2022, published 2024).

A word on the EC50: it is the midpoint of the concentration-response curve.

The subject of assay [1] is HDV. The experiment in a line: HDV infection in primary human hepatocytes (PHHs) and RNA quantification (RT-qPCR). The format is cell-based. Conditions: Hepatocyte, 192 h, HDV infection of primary human hepatocytes, viral RNA at day 8 post infection. The source says:
Primary human hepatocytes (Thermo Fisher Scientific) were thawed in Williams E Medium with CM3000 supplement pack (Thermo Fisher Scientific) and seeded at 70,000 cells/well on collagen-coated 96-well plate. Six hours post-seeding, cell medium was changed to Williams E Medium with CM4000 cell maintenance supplement pack for further culture (Thermo Fisher Scientific). HDV virus collected from the supernatants of HuH7-END cells was purified in the presence of 6% polyethylene glycol (PEG). Viral titer was then quantified by RT-qPCR using HDV specific primers against a reference standard. On the day of infection, compounds were 4-fold serially diluted in DMSO and pre-incubated with PHHs for two hours before infecting with 100 GE/cell of HDV in 4% PEG. On day one post infection, HDV-containing media was aspirated, cells were washed once with PBS and then maintained in 2.5% DMSO containing media for the remainder of the assay. Viral RNA was isolated using RNeasy kits at day 8 post infection and reverse transcribed into cDNA using High-Capacity RNA-to-cDNA Kit. Relative HDV gene expression was quantified by RT-qPCR after normalization to expression of a housekeeping gene. Irrespective of readout, compound concentrations that reduce viral RNA by 50% relative to DMSO controls (EC50) are reported. EC50 ranges are as follows: A<0.1 μM; B 0.1-1 μM; C>1 μM.
For orientation: Real-time PCR tracks product formation cycle by cycle.

Assay [2] has as its target T1, NTCP (Homo sapiens, UniProt Q14973).
T1 construct: expressed in transfected cells; host or cells: HepG2-NTCP (clone A3, kept under puromycin)
T1 sequence (Q14973 1-349): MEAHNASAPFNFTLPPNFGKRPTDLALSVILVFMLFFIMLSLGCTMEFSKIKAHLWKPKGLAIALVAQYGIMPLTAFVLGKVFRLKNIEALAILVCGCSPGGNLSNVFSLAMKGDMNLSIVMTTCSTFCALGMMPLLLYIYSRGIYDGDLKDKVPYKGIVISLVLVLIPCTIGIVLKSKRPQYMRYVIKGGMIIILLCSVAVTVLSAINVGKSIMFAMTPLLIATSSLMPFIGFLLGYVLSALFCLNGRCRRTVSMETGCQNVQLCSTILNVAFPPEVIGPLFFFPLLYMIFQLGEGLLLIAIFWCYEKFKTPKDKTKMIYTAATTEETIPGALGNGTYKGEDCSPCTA
The experiment in a line: HepG2-NTCP preS1 binding competition assay (FITC-labeled myristoylated preS1 peptide). Conditions: HepG2-NTCP cells; competition with FITC-labeled preS1 peptide. The procedure:
HepG2-NTCP preS1 Binding Competition Assay
Myristoylated preS1 peptide (2-48 aa) conjugated to a C-terminal FITC tag was synthesized to evaluate preS1 binding to NTCP-expressing cells. HepG2-NTCP cells seeded in 384-wells were pre-treated with compounds for 2 hours prior to the addition of FITC-labeled preS1 peptide. After co-incubation for 30 minutes, unbound FITC-preS1 peptide was washed twice with PBS, and the fluorescence of preS1-FITC bound to cell surface was detected by Envision plate reader. EC50 ranges are as follows: A<0.1 μM; B 0.1-1 μM; C>1 μM.

Assay [3] has as its system HDV. Nature of the assay: HDV infection in HepG2-NTCP cells and RNA quantification (RT-qPCR). Format: cell-based. Conditions: 288 h; HDV infection of HepG2-NTCP cells; viral RNA by RT-qPCR at day 12 post infection; read-out: Cellular EC50. The procedure: HDV virus collected from the supernatants of HuH7-END cells was purified in the presence of 6% polyethylene glycol (PEG). Viral titer was then quantified by RT-qPCR using HDV specific primers against a reference standard. For HDV infection, HepG2-NTCP cells were seeded in 96-well plates at 60,000 cells/well. On the day of infection, compounds were 4-fold serially diluted in DMSO and pre-incubated with HepG2-NTCP cells for two hours before infecting with 800 GE/cell of HDV in 4% PEG. On day one post infection, HDV-containing media was aspirated, cells were washed once with PBS and then maintained in 2.5% DMSO containing media for the remainder of the assay. Viral RNA was isolated using RNeasy kits (Qiagen) at day 12 post infection and reverse transcribed into cDNA using High-Capacity RNA-to-cDNA Kit (Thermo Fisher). Relative HDV gene expression was quantified by RT-qPCR after normalization to expression of a housekeeping gene. Irrespective of readout, compound concentrations that reduce viral RNA by 50% relative to DMSO controls (EC50) are reported. EC50 ranges are as follows: A<0.1 μM; B 0.1-1 μM; C>1 μM.

Assay [4] relates to HBV. Nature of the assay: HBV infection in HepG2-NTCP cells (HBeAg AlphaLISA in supernatants). The format is cell-based. Conditions: Hepatitis B virus, 192 h; HBV infection of HepG2-NTCP cells; HBeAg in supernatants at day 8 post infection; read-out: Cellular EC50. The method in brief:
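Readout was day-8 supernatant HBeAg by AlphaLISA, with EC50 set against DMSO controls and binned A<0.1 μM, B 0.1-1 μM, C>1 μM. Compounds were added 2 h before HBV (2000 GE/cell, 4% PEG, 0.5% DMSO) to HepG2-NTCP A3 cells; from day 1 medium held 2.5% DMSO.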
Background: Bead proximity is the source of the signal in Alpha formats.

[5] abbreviates: Donor 1, read-out: Cellular EC50 (μM) Donor 1.
[6] abbreviates: Donor 2, read-out: Cellular EC50 (μM) Donor 2.

The structures appear in SMILES notation.

As for `CN1[C@H](C2CCCCC2)CN(c2ccccc2)c2cc(Cl)c(-c3cc(F)c(C(=O)O)s3)cc2S1(=O)=O` [Example 116, (R)-5-(7-chloro-3-cyclohexyl-2-methyl-1,1-dioxido-5-phenyl-2,3,4,5-tetrahydrobenzo[f][1,2,5]thiadiazepin-8-yl)-3-fluorothiophene-2-carboxylic acid], the EC50 in assay [1] (setting [5]) is below 0.1 µM; in assay [2], below 100 nM; in assay [3], below 100 nM; in assay [4], below 100 nM.
Turning to `Cc1cc(-c2cc3c(cc2F)N(c2ccccc2)C[C@@H](C2CCCCC2)N(C)S3(=O)=O)sc1C(=O)O` [Example 127, (R)-5-(3-cyclohexyl-7-fluoro-2-methyl-1,1-dioxido-5-phenyl-2,3,4,5-tetrahydrobenzo[f][1,2,5]thiadiazepin-8-yl)-3-methylthiophene-2-carboxylic acid], the EC50 in assay [1] (setting [6]) was below 0.1 µM; in assay [2], below 100 nM; in assay [4], below 100 nM.
Turning to `Cc1cc(-c2cc3c(cc2Cl)N(c2ccccc2)C[C@@H](C2CCCCC2)N(C)S3(=O)=O)sc1C(=O)O` [Example 126, (R)-5-(7-chloro-3-cyclohexyl-2-methyl-1,1-dioxido-5-phenyl-2,3,4,5-tetrahydrobenzo[f][1,2,5]thiadiazepin-8-yl)-3-methylthiophene-2-carboxylic acid], the EC50 in assay [3] and in assay [4] was below 100 nM each time.
Consider `CN1[C@H](C2CCCCC2)CN(c2ccccc2)c2cc(Cl)c(-c3ccc(F)c(C(=O)O)c3)cc2S1(=O)=O` [Example 25, (R)-5-(7-chloro-3-cyclohexyl-2-methyl-1,1-dioxido-5-phenyl-2,3,4,5-tetrahydrobenzo[f][1,2,5]thiadiazepin-8-yl)-2-fluorobenzoic acid], for which the EC50 was below 0.1 µM in assay [1] (setting [5]), 0.1 to 1 µM in assay [1] (setting [6]), below 100 nM in assay [3] and below 100 nM in assay [4].
